Values quoted from earlier work, collected in patent US8603996B2, “Modular aptamer-regulated ribozymes” (California Institute of Technology, priority 2006, dated 2013).

System: theophylline aptamer

binding affinity lower than theophylline: 27 fold
SMILES: O=c1[nH]c(=O)c2[nH]cnc2[nH]1 [xanthine]
